Values joined by “and” are separate entries in the source; they are usually repeats but may differ in a detail not shown here. Equal entries are not always repeated.
How the values were obtained:
[1] = test system: rabbit coronary microvessel endothelium; conditions: cited from earlier work
[2] = Toxicokinetic study: plasma DSP and DEX by LC-MS after single device application; type: in vivo, New Zealand White rabbits; conditions: after DSP application via device; all four regimens
Experimental: For the toxicokinetic study, there were four groups of rabbit. […] Blood was collected and processed for plasma at predose, 5, 30, 60, 120, 240, and 360 minutes, and 24, 48, 72, 96, and 168 hours after administration.
One drop of sterile proparacaine hydrochloride (a local anesthetic) was put on the eye (to be treated) 5 minutes before dose administration. […] The position of the device was checked to ensure that the active agent matrix was in immediate contact with the white part of the eye but not the cornea. Digital timers were used for accurate application times (i.e., 5, 10, or 20 minutes). After the given application duration, the applicator was carefully removed from the eye.
Approximately 1 mL of blood was collected by direct venipuncture of the jugular vein with a 3 mL syringe and 21 GA×1″ needle. […]
Briefly, the samples were assayed by Shimadzu SCL-10A controller with LC-10AD pump. […] The limit of quantitation (LOQ) of this method was 1 ng/mL.
Toxicokinetic data analysis was based on standard noncompartmental pharmacokinetic methods. […] The maximum observed plasma concentration (Cmax) was determined by visual estimation from the data plot. Area under the plasma concentration vs. time curve from 0 to the time of the last measurable concentration (AUC) was calculated by the linear trapezoidal method. […]

[3] = test system: treated eyes (right eye); conditions: rabbit, in vivo
Experimental: Ketamine hydrochloride injectable USP (100 mg/mL) and sodium chloride 0.9% USP were from Hospira, Inc. (Lake Forest, Ill.); proparacaine hydrochloride ophthalmic solution was from Bausch & Lomb (Tampa, Fla.); cyclopentolate hydrochloride ophthalmic solution was from Alcon Laboratories (Fort Worth, Tex.); xyrazine and potassium chloride (KCl) were from Sigma-Aldrich (St. Louis, Mo.). Syringes and needles were from Becton, Dickinson and Company (Franklin Lakes, N.J.). The binocular indirect ophthalmoscope used was the Keeler All Pupil II from Keeler Instruments (Broomall, Pa.) and it was complemented with the double aspheric lens 20D/50 mm for posterior chamber examination from Volk Optical Inc (Mentor, Ohio). Young adult New Zealand White rabbits each weighing 3-4 kg were obtained from Western Oregon Rabbit Co. (Philomath, Oreg.). This study complied with the ARVO Statement for the use of Animals in Ophthalmic and Vision Research and was approved by The University of Utah Institutional Animal Care and Use Committee (Salt Lake City, Utah). All animals were acclimated and observed for health issues for at least two weeks prior to being used in the study.
For the ocular toxicity study, there were four groups. […]
Body weights of the animal were taken upon arrival, and then monthly. […] Observations on the anterior and posterior segments of the eye were made, graded, and recorded. […]

Row | SMILES | Concentration that can inhibit prostaglandin release [1] | Tmax of DEX in plasma [2] [min] | Ocular findings in treated eyes (conjunctival injection, discharge, corneal haze) [3]
1 | C[C@@H]1C[C@H]2[C@@H]3CCC4=CC(=O)C=C[C@]4(C)[C@@]3(F)[C@@H](O)C[C@]2(C)[C@@]1(O)C(=O)CO [DEX, dexamethasone] | 10^−7 M and ~40 ng/mL | 30 | 
2 | C[C@@H]1C[C@H]2[C@@H]3CCC4=CC(=O)C=C[C@]4(C)[C@@]3(F)[C@@H](O)C[C@]2(C)[C@@]1(O)C(=O)COP(=O)(O)O [DSP, Dexamethasone sodium phosphate] |  |  | transient and mild in nature
